According to patent US5834284A, “N-acetylglucosaminyl transferase gene coding therefor and process for production thereof” (Suntory Limited, priority 1992, dated 1998):

Biological target: T1, GnT-V (β1,6-N-acetylglucosaminyl transferase) (Homo sapiens, UniProt Q09328)
T1 construct: 73/60 kDa
T1 sequence (Q09328 31-741): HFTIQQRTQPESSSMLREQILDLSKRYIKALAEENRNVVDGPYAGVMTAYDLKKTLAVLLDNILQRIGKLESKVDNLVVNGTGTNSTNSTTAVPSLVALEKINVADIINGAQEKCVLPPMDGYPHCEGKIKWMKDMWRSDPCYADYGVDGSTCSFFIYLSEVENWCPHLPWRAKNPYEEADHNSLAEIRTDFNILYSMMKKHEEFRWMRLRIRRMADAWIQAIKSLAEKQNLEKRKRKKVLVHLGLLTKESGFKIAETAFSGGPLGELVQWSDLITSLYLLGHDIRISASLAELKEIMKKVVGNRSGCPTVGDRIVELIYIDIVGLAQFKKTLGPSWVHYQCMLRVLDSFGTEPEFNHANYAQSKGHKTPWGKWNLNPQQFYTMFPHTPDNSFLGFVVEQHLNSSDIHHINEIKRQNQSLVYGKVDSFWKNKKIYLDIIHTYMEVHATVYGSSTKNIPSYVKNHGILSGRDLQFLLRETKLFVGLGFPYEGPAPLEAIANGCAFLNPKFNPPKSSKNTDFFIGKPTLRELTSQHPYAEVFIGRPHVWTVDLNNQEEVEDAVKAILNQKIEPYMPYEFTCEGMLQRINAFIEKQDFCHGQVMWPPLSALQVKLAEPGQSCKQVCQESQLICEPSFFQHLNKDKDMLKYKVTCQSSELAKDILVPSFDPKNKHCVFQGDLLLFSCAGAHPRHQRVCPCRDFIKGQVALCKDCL
Assay: GnT-V enzyme activity assay with fluorescence-labeled sugar acceptors, product separated by HPLC
Format: biochemical
Details: for Relative reaction rate: acceptor 70 μM, purified GnT-V 0.1 mg protein/ml, GnGn-bi-PA = 100; for reactivity relative to GnGn-bi-PA acceptor taken as 100%: substrate specificity
From the text: An enzyme activity can be easily assayed by labeling an acceptor with a radioisotope or with fluorescent substance, adding the enzyme and separating the reaction product by high performance liquid chromatography (HPLC). More specifically, the method reported by Tanigichi et al. (Taniguchi, N., Nishikawa, A., Fujii, S., and Gu. J., Methods Enzymol. 179, 397-408 (1989); Nishikawa, H., Gu, J., Fujii, S., and Tanigichi, N., Biochem. Biophys. Acta, 1035, 313-318 (1990)) may be followed.
Namely, the enzyme activity of GnT-V can be assayed using GnGn-2-aminopyridine (GnGn-bi-PA) as an acceptor, and UDP-GluNAc (Sigma) as a donor. Activity is shown by an amount of transferred N-acetylglucosamine/hour/mg protein. Note, an amount of protein can be measured according to a reported method (Redinbaugh, M. G., and Turley, R. B., Anal. Biochem. 153, 267-271 (1986)) using a BCA kit (Pierce Chemical Company, Rockford, Ill.) and using bovine serum albumin as a standard.
Substrate specificity was determined using the following compound as sugar acceptors according to the above-mentioned enzyme activity measuring method. [drawing 1]
GnGnF--, GnGF--, GGnF--, Gn(Gn)GnF--, Gn(Gn)Gn--, GG--, GnGn--, MM-- and GnM-- were isolated from the bovine IgG treated with anhydrous hydrazine and then labeled with a fluorescence label according to Hase et al. method (Hase, S., Ibuki, T., and Ikehara, T., J. Biochem. 95, 197-203 (1984). The purified GnT-V was diluted with PBS buffer to a final concentration of 0.1 mg protein/ml, and then reacted with each fluorescence-labeled sugar acceptor. A result is shown in Table 2.

Relative reaction rate | SMILES | also measured
0 | CC(=O)N[C@H]1[C@H](O[C@H]2[C@@H](O)[C@@H](CO)O[C@@H](O[C@@H]([C@H](O)[C@@H](O)CNc3ccccn3)[C@H](O)CO)[C@@H]2O)O[C@H](CO)[C@@H](O)[C@@H]1O [Lacto-N-triaose-PA, GlcNAcβ1-3Galβ1-4Glc-2-aminopyridine] | –
78 | CC(=O)N[C@H]1[C@H](O[C@@H]([C@H](O)[C@H](CNc2ccccn2)NC(C)=O)[C@H](O)CO[C@@H]2O[C@@H](C)[C@@H](O)[C@@H](O)[C@@H]2O)O[C@H](CO)[C@@H](O[C@@H]2O[C@H](CO[C@H]3O[C@H](CO)[C@@H](O)[C@H](O)[C@@H]3O[C@@H]3O[C@H](CO)[C@@H](O)[C@H](O)[C@H]3NC(C)=O)[C@@H](O)[C@H](O[C@H]3O[C@H](CO)[C@@H](O)[C@H](O)[C@@H]3O[C@@H]3O[C@H](CO)[C@@H](O)[C@H](O)[C@H]3NC(C)=O)[C@@H]2O)[C@@H]1O [GnGnF-bi-PA, GlcNAcβ1-2Manα1-3-(GlcNAcβ1-2Manα1-6)Manβ1-4GlcNAcβ1-4GlcNAc(Fucα1-6)-2-aminopyridine] | reaction of the enzyme with acceptor (qualitative): reacts; reactivity relative to GnGn-bi-PA acceptor taken as 100%: about 78%
– | O=C(O)CN(CCN(CC(=O)O)CC(=O)O)CC(=O)O [EDTA] | inhibition of GnT-V activity (in the presence of 20 mM EDTA): not inhibited
3 | CC(=O)N[C@H]1[C@H](O[C@@H]([C@H](O)[C@H](CNc2ccccn2)NC(C)=O)[C@H](O)CO[C@@H]2O[C@@H](C)[C@@H](O)[C@@H](O)[C@@H]2O)O[C@H](CO)[C@@H](O[C@@H]2O[C@H](CO[C@H]3O[C@H](CO)[C@@H](O)[C@H](O)[C@@H]3O[C@@H]3O[C@H](CO)[C@@H](O)[C@H](O)[C@H]3NC(C)=O)[C@@H](O)[C@H](O[C@H]3O[C@H](CO)[C@@H](O)[C@H](O)[C@@H]3O[C@@H]3O[C@H](CO)[C@@H](O[C@@H]4O[C@H](CO)[C@H](O)[C@H](O)[C@H]4O)[C@H](O)[C@H]3NC(C)=O)[C@@H]2O)[C@@H]1O [GnGF-bi-PA, Galβ1-4GlcNAcβ1-2Manα1-3(GlcNAcβ1-2Manα1-6)Manβ1-4GlcNAcβ1-4GlcNAc(Fucα1-6)-2-aminopyridine] | –
0 | CC(=O)N[C@H]1[C@H](O[C@@H]([C@H](O)[C@H](CNc2ccccn2)NC(C)=O)[C@H](O)CO)O[C@H](CO)[C@@H](O[C@@H]2O[C@H](CO[C@H]3O[C@H](CO)[C@@H](O)[C@H](O)[C@@H]3O)[C@@H](O)[C@H](O[C@H]3O[C@H](CO)[C@@H](O)[C@H](O)[C@@H]3O)[C@@H]2O)[C@@H]1O [MM-PA, Manα1-3Manα1-6)Manβ1-4GlcNAcβ1-4GlcNAc-2-aminopyridine] | –
66 | CC(=O)N[C@H]1[C@H](O[C@@H]([C@H](O)[C@H](CNc2ccccn2)NC(C)=O)[C@H](O)CO)O[C@H](CO)[C@@H](O[C@@H]2O[C@H](CO[C@H]3O[C@H](CO)[C@@H](O)[C@H](O)[C@@H]3O[C@@H]3O[C@H](CO)[C@@H](O)[C@H](O)[C@H]3NC(C)=O)[C@@H](O)[C@H](O[C@H]3O[C@H](CO)[C@@H](O)[C@H](O)[C@@H]3O)[C@@H]2O)[C@@H]1O [GnM-PA, Manα1-3(GlcNAcβ1-2Manα1-6)Manβ1-4GlcNAcβ1-4GlcNAc-2-aminopyridine] | reaction of the enzyme with acceptor (qualitative): reacts; reactivity relative to GnGn-bi-PA acceptor taken as 100%: about 66%
– | [Mn+2] [Mn^2+] | requirement for expression of GnT-V activity: not necessary
0 | CC(=O)N[C@H]1[C@H](O[C@H]2[C@@H](O)[C@@H](CO)O[C@@H](O[C@@H]([C@H](O)[C@@H](O)CNc3ccccn3)[C@H](O)CO)[C@@H]2O)O[C@H](CO)[C@@H](O[C@@H]2O[C@H](CO)[C@H](O)[C@H](O)[C@H]2O)[C@@H]1O [Lacto-N-neotetraose-PA, Galβ1-4GlcNAcβ1-3Galβ1-4Glc-2-aminopyridine] | –
0.2 | CC(=O)N[C@H]1[C@H](O[C@@H]([C@H](O)[C@H](CNc2ccccn2)NC(C)=O)[C@H](O)CO[C@@H]2O[C@@H](C)[C@@H](O)[C@@H](O)[C@@H]2O)O[C@H](CO)[C@@H](O[C@@H]2O[C@H](CO[C@H]3O[C@H](CO)[C@@H](O)[C@H](O)[C@@H]3O[C@@H]3O[C@H](CO)[C@@H](O[C@@H]4O[C@H](CO)[C@H](O)[C@H](O)[C@H]4O)[C@H](O)[C@H]3NC(C)=O)[C@@H](O)[C@H](O[C@H]3O[C@H](CO)[C@@H](O)[C@H](O)[C@@H]3O[C@@H]3O[C@H](CO)[C@@H](O)[C@H](O)[C@H]3NC(C)=O)[C@@H]2O)[C@@H]1O [GGnF-bi-PA, GlcNAcβ1-2Manα1-3(Galβ1-4GlcNAc2Manα1-6)Manβ1-4GlcNAcβ1-4GlcNAc(Fucα1-6)-2-aminopyridine] | –
125 | CC(=O)N[C@H]1[C@H](O[C@@H]([C@H](O)[C@H](CNc2ccccn2)NC(C)=O)[C@H](O)CO)O[C@H](CO)[C@@H](O[C@@H]2O[C@H](CO[C@H]3O[C@H](CO)[C@@H](O)[C@H](O)[C@@H]3O[C@@H]3O[C@H](CO)[C@@H](O)[C@H](O)[C@H]3NC(C)=O)[C@@H](O)[C@H](O[C@H]3O[C@H](CO)[C@@H](O[C@@H]4O[C@H](CO)[C@@H](O)[C@H](O)[C@H]4NC(C)=O)[C@H](O)[C@@H]3O[C@@H]3O[C@H](CO)[C@@H](O)[C@H](O)[C@H]3NC(C)=O)[C@@H]2O)[C@@H]1O [GnGnGn-tri-PA, GlcNAcβ1-2(GlcNAcβ1-4)Manα1-3(GlcNAcβ1-2Manα1-6)-Manβ1-4GlcNAcβ1-4GlcNAc-2-aminopyridine] | reaction of the enzyme with acceptor (qualitative): reacts; reactivity relative to GnGn-bi-PA acceptor taken as 100%: about 125%
0 | CC(=O)N[C@H]1[C@H](O[C@@H]([C@H](O)[C@H](CNc2ccccn2)NC(C)=O)[C@H](O)CO)O[C@H](CO)[C@@H](O[C@@H]2O[C@H](CO[C@H]3O[C@H](CO)[C@@H](O)[C@H](O)[C@@H]3O[C@@H]3O[C@H](CO)[C@@H](O[C@@H]4O[C@H](CO)[C@H](O)[C@H](O)[C@H]4O)[C@H](O)[C@H]3NC(C)=O)[C@@H](O)[C@H](O[C@H]3O[C@H](CO)[C@@H](O)[C@H](O)[C@@H]3O[C@@H]3O[C@H](CO)[C@@H](O[C@@H]4O[C@H](CO)[C@H](O)[C@H](O)[C@H]4O)[C@H](O)[C@H]3NC(C)=O)[C@@H]2O)[C@@H]1O [GG-bi-PA, Galβ1-4GlcNAcβ1-2Manα1-3(Galβ1-4GlcNAcβ1-2Manα1-6)Manβ1-4GlcNAcβ1-4GlcNAc-2-aminopyridine] | –
0 | CC(=O)N[C@H]1[C@H](O[C@@H]([C@H](O)[C@H](CNc2ccccn2)NC(C)=O)[C@H](O)CO)O[C@H](CO)[C@@H](O[C@@H]2O[C@H](CO[C@H]3O[C@H](CO)[C@@H](O)[C@H](O)[C@@H]3O[C@@H]3O[C@H](CO)[C@@H](O)[C@H](O)[C@H]3NC(C)=O)[C@@H](O[C@@H]3O[C@H](CO)[C@@H](O)[C@H](O)[C@H]3NC(C)=O)[C@H](O[C@H]3O[C@H](CO)[C@@H](O)[C@H](O)[C@@H]3O[C@@H]3O[C@H](CO)[C@@H](O)[C@H](O)[C@H]3NC(C)=O)[C@@H]2O)[C@@H]1O [Gn(Gn)Gn-bi-PA, GlcNAcβ1-2Manα1-2Manα1-6)-Manβ1-4GlcNAcβ1-4GlcNAc-2-aminopyridine] | –
0 | CC(=O)N[C@H]1[C@H](O[C@@H]([C@H](O)[C@H](CNc2ccccn2)NC(C)=O)[C@H](O)CO[C@@H]2O[C@@H](C)[C@@H](O)[C@@H](O)[C@@H]2O)O[C@H](CO)[C@@H](O[C@@H]2O[C@H](CO[C@H]3O[C@H](CO)[C@@H](O)[C@H](O)[C@@H]3O[C@@H]3O[C@H](CO)[C@@H](O)[C@H](O)[C@H]3NC(C)=O)[C@@H](O[C@@H]3O[C@H](CO)[C@@H](O)[C@H](O)[C@H]3NC(C)=O)[C@H](O[C@H]3O[C@H](CO)[C@@H](O)[C@H](O)[C@@H]3O[C@@H]3O[C@H](CO)[C@@H](O)[C@H](O)[C@H]3NC(C)=O)[C@@H]2O)[C@@H]1O [Gn(Gn)GnF-bi-PA, GlcNAcβ1-2Manα1-2Manα1-6)-Manβ1-4GlcNAcβ1-4GlcNAc(Fucα1-6)2-aminopyridine] | –
